Assay results reported in US20260167622A1, “PAN-KRAS DEGRADING AGENT, AND PREPARATION METHOD THEREFOR AND USE THEREOF” (LEADINGTAC PHARMACEUTICAL (SHAOXING) CO., LTD., priority 2022, published 2026).

Assays:
Format in all cases: cell-based
[1] = test system: KRAS G12D mutant human metastatic pancreatic cancer cell AsPc-1; experiment: 3D cell proliferation inhibition assay, AsPc-1; conditions: ASPC1, 168 h, 3D culture, 7 days, CTG
Description: (§1) Test Example 6: 3D Cell Proliferation Inhibition Assay
(§2) The inhibitory effects of the compounds on 3D cell proliferation were investigated on KRAS G12C mutant human non-small cell lung cancer cell NCI-H358, KRAS G12D mutant human lung cancer cell A427, KRAS G12D mutant human gastric cancer cell AGS, KRAS G12D mutant human metastatic pancreatic cancer cell AsPc-1, KRAS G12V mutant human lung squamous carcinoma cell SW900, KRAS G12V mutant human colorectal cancer cell SW620, KRAS G13D mutant human colorectal cancer epithelial cell DLD-1, and KRAS WT human gastric cancer cell MKN1. The specific procedures were as follows:
(§3) 10 μL of each compound solution diluted in a gradient was added to corresponding wells of a 96-well low-adsorption microplate (PerkinElmer), so that the final concentrations of the test compounds in the reaction system were in a range of 10000-0.026 nM. The final concentration of DMSO was 0.2%. Then 90 µL of cells were correspondingly seeded into each well to achieve a cell density of 5×10^2 cells/well (the cell density of SW900 was 5×10^3 cells/well, and the cell density of MKN1 was 1×10^3 cells/well). In addition to test wells for the test compounds, both a DMSO control well and a medium control well were set, with the DMSO control well containing DMSO and cells and the medium well containing only a medium. After the sample loading, the 96-well low-adsorption microplate was incubated in an incubator at 37° C. with […] for 7 days. After 7 days, the microplate was taken out, and 100 μL of CTG reagent (Promega) was added to each well. The plate was incubated at room temperature for 60 m and read on a microplate reader EnVision by the chemiluminescence program. The inhibition rates of the compounds at each concentration were calculated using the formula for the percentage inhibition of cell proliferation: inhibition rate 00=(mean value of DMSO control group−single concentration reading value of compound)/(mean value of DMSO control group−mean value of medium control group)×100. Then non-linear curve fillings for logarithmic concentration-inhibition rate were performed by GraphPad Prism 8, and the IC50 values of the compounds were obtained (Table 6).

[2] = test system: KRAS G12V mutant human lung squamous carcinoma cell SW900; experiment: 3D cell proliferation inhibition assay, SW900; conditions: SW900, 168 h, 3D culture, 7 days, CTG
Description: as §1, §2, §3

[3] = test system: KRAS WT human gastric cancer cell MKN1; experiment: 3D cell proliferation inhibition assay, MKN1; conditions: MKN-1, 168 h, 3D culture, 7 days, CTG
Description: as §1, §2, §3

[4] = molecular target: T1, KRAS G12V protein in SW900 cells (Homo sapiens, UniProt P01116, G12V); experiment: KRAS degradation assay (Western Blot) in SW900 cells; conditions: 24 h
T1 construct: endogenous in cells; host or cells: SW900
Description: (§4) Test Example 5: KRAS G12C, KRAS G12D, KRAS G12V, KRAS G13D, and KRAS WT (Expanded) Degradation Assays
(§5) The degradation effect of the compounds on KRAS was investigated on KRAS G12C mutant human non-small cell lung cancer cell NCI-H358, KRAS G12D mutant human metastatic pancreatic cancer cell AsPc-1, KRAS G12D mutant human lung cancer cell A427, KRAS G12V mutant human colorectal cancer cell SW620, KRAS G12V mutant human lung cancer cell SW900, KRAS G13D mutant human colorectal cancer epithelial cell DLD-1, and KRAS WT human gastric cancer cell MKN-1. The specific procedures were as follows: 0.95 mL of cells were seeded into each well of a 24-well cell culture plate to achieve a cell density of 5×10^5 cells/well; and the cell plate was incubated in an incubator at 37° C. with 5% CO2 overnight. Then 50 μL of the compound solution after dilution was added to each of the wells with the corresponding cells, so that the final concentration of the compound was in a range of 0.03-3000 nM. The final concentration of DMSO was 0.25%. After the compounds were added, the cell plate was incubated in an incubator at 37° C. with 5% CO2 for 24 h. The culture medium in the 24-well cell culture plate was then removed, and the plate was washed twice with 1×PBS (KeyGEN). 120 μL of RIPA (strong) lysis buffer (Beyotime) (supplemented with 1 mM phenylmethylsulfonyl fluoride, a protease inhibitor mixture (Beyotime), and a protease phosphatase inhibitor mixture (Beyotime)) was added to lyse adherent SW900 cells at the bottom of the cell culture plate. After the plate was left to stand on ice for 30 min, the protein lysate in each well was transferred to a 1.5 mL centrifuge tube and centrifuged at 15000 g for 20 min at 4° C. The cell lysate supernatants after centrifugation were cryopreserved in a refrigerator at −80° C. for later use.
(§6) After the samples of the cell lysate supernatants that had been prepared were thawed from the refrigerator at −80° C., the total protein concentrations of the cell lysates were determined using a BCA protein quantification kit (Tiangen). The total protein concentrations of the samples were then adjusted to 0.5 μg/μL with PBS and 5×SDS-PAGE protein loading buffer (Beyotime), and the samples were incubated in a water bath at 100° C. for 15 min. The samples were then incubated in an ice bath for 5 min and centrifuged at 14000 g for 1 min at 4° C., and the supernatants were mixed well as loading samples for the Western Blot assay. The samples were loaded into wells of a 10% precast gel (KeyGEN) with a loading volume of 10 μL (total protein: 5 μg), a sufficient Tris-MOPS-SDS running buffer (Adamas) was added, and then electrophoresis was performed at a constant voltage of 120 V for 55 min. After the electrophoresis, the proteins on the gel were transferred to PVDF membranes at a constant current of 250 mA for 55 min. After the membrane transfer, the PVDF membranes were incubated in 1× Quick Block blocking buffer (Beyotime)at room temperature for 30 min. After the blocking, the PVDF membranes were separately incubated at 4° C. overnight with the KRAS antibody (Abcam) diluted in a ratio of 1:1000 and the β-actin antibody (Abcam) diluted in a ratio of 1:2000 in 5% BSA as the diluent, and then washed with 1×TBST buffer (2.4 g of Tris, 8.8 g of NaCl, 1.5 mL of Tween 20, with pH adjusted to 7.4, with the volume brought to 1 L) 3 times for 10 min/time. The membranes were incubated with a secondary antibody (Abcam) diluted in 5% BSA at room temperature for 2 h, and then washed with 1×TBST buffer 3 times for 10 min/time. Finally, the membranes were incubated with Clarity Western ECL Substrate (BIO-RAD) for 5 min for luminescence and color development, and a ChemiScope 6200 Touch chemiluminescence imaging system (Clinx) was used for color development and protein mapping. Gray value analysis of the protein maps was performed using the chemiluminescence analysis software (Clinx). […]

[5] = molecular target: T2, KRAS G12V protein in SW620 cells (Homo sapiens, UniProt P01116, G12V); experiment: KRAS degradation assay (Western Blot) in SW620 cells; conditions: for DC50: 24 h; for Dmax: SW-620, 24 h
T2 construct: endogenous in cells; host or cells: SW620
Description: as §4, §5, §6

[6] = test system: KRAS G12C mutant human non-small cell lung cancer cell NCI-H358; experiment: 3D cell proliferation inhibition assay, NCI-H358; conditions: NCI-H358, 168 h, 3D culture, 7 days, CTG
Description: as §1, §2, §3

[7] = test system: KRAS G12V mutant human colorectal cancer cell SW620; experiment: 3D cell proliferation inhibition assay, SW620; conditions: SW-620, 168 h, 3D culture, 7 days, CTG
Description: as §1, §2, §3

[8] = test system: KRAS G13D mutant human colorectal cancer epithelial cell DLD-1; experiment: 3D cell proliferation inhibition assay, DLD-1; conditions: DLD-1, 168 h, 3D culture, 7 days, CTG
Description: as §1, §2, §3

T1 sequence (P01116 1-188 isoform P01116-2 G12V): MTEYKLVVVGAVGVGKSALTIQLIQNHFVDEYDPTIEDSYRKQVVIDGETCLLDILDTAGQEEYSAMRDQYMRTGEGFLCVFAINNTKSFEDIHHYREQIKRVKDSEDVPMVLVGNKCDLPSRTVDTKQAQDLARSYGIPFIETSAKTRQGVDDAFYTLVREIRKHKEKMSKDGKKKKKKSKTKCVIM
T2 sequence (P01116 1-188 isoform P01116-2 G12V): as above

Structure (SMILES)	IC50 [1]	IC50 [2]	IC50 [3]	DC50 [4]	Dmax [4]	DC50 [5]	Dmax [5]	IC50 [6]	IC50 [7]	IC50 [8]
C#Cc1c(F)ccc2cc(O)cc(-c3ncc4c(N5CCCCCC5)nc(OCC5(CN6CCN(CC7CCC8(CC7)CCN(C(=O)c7ccc(C)c(N9CCC(=O)NC9=O)c7)CC8)CC6)CC5)nc4c3F)c12 [Example 37, 1-(5-(9-((4-((1-(((4-(azepan-1-yl)-7-(8-ethynyl-7-fluoro-3-hydroxynaphthalen-1-yl)-8-fluoropyrido[4,3-d]pyrimidin-2-yl)oxy)methyl)cyclopropyl)methyl)piperazin-1-yl)methyl)-3-azaspiro[5.5]undecane-3-carbonyl)-2-methylphenyl)dihydropyrimidine-2,4(1H,3H)-dione]	100 to 500 nM	≤ 50 nM	≤ 50 nM	–	–	–	–	–	–	–
C#Cc1cccc2cc(O)cc(-c3ncc4c(N5CCC[C@@](C)(O)C5)nc(OCC5(CN6CCC(CCOCC7CCN(C(=O)c8ccc(OC)c(N9CCC(=O)NC9=O)c8)CC7)CC6)CC5)nc4c3F)c12 [Example 38, (R)-1-(5-(4-((2-(1-((1-(((7-(8-ethynyl-3-hydroxynaphthalen-1-yl)-8-fluoro-4-(3-hydroxy-3-methylpiperidin-1-yl)pyrido[4,3-d]pyrimidin-2-yl)oxy)methyl)cyclopropyl)methyl)piperidin-4-yl)ethoxy)methyl)piperidine-1-carbonyl)-2-methoxyphenyl)dihydropyrimidine-2,4(1H,3H)-dione]	50 to 100 nM	100 to 500 nM	≤ 50 nM	≤ 50 nM	80 to 100%	–	–	–	–	–
C#Cc1c(F)ccc2cc(O)cc(-c3ncc4c(N5CCC[C@@](C)(O)C5)nc(OCC5(CN6CCN(CCC#CC7CCN(C(=O)c8ccc(Cl)c(N9CCC(=O)NC9=O)c8)CC7)CC6)CC5)nc4c3F)c12 [Example 43, (R)-1-(2-chloro-5-(4-(4-(4-((1-(((7-(8-ethynyl-7-fluoro-3-hydroxynaphthalen-1-yl)-8-fluoro-4-(3-hydroxy-3-methylpiperidin-1-yl)pyrido[4,3-d]pyrimidin-2-yl)oxy)methyl)cyclopropyl)methyl)piperazin-1-yl)but-1-yn-1-yl)piperidine-1-carbonyl)phenyl)dihydropyrimidine-2,4(1H,3H)-dione]	50 to 100 nM	≤ 50 nM	50 to 100 nM	≤ 50 nM	80 to 100%	–	–	–	–	–
C#Cc1c(F)ccc2cc(O)cc(-c3ncc4c(N5CCCC(F)(F)C5)nc(OCC5(CN6CCN(CC7CCC8(CC7)CCN(C(=O)c7ccc(OC)c(N9CCC(=O)NC9=O)c7)CC8)CC6)CC5)nc4c3F)c12 [Example 72, 1-(5-(9-((4-((1-(((4-(3,3-difluoropiperidin-1-yl)-7-(8-ethynyl-7-fluoro-3-hydroxynaphthalen-1-yl)-8-fluoropyrido[4,3-d]pyrimidin-2-yl)oxy)methyl)cyclopropyl)methyl)piperazin-1-yl)methyl)-3-azaspiro[5.5]undecane-3-carbonyl)-2-methoxyphenyl)dihydropyrimidine-2,4(1H,3H)-dione]	176 nM	–	102 nM	–	–	11.8 nM	95.2%	32.9 nM	22 nM	54.3 nM

Now from value to compound:

IC50 [1]	IC50 [2]	IC50 [3]	DC50 [4]	Dmax [4]	DC50 [5]	Dmax [5]	IC50 [6]	IC50 [7]	IC50 [8]	Structure (SMILES)
21.2 nM	–	5.23 nM	–	–	14.2 nM	89.2%	6.63 nM	7.01 nM	9.98 nM	C#Cc1c(F)ccc2cc(O)cc(-c3ncc4c(N5CCC[C@@](C)(O)C5)nc(OCC(C)CN5CCN(CC6CCC7(CC6)CCN(C(=O)c6ccc(OC)c(N8CCC(=O)NC8=O)c6)CC7)CC5)nc4c3F)c12 (stereo partly drawn) [Example 86, 1-(5-(9-((4-(3-((7-(8-ethynyl-7-fluoro-3-hydroxynaphthalen-1-yl)-8-fluoro-4-((R)-3-hydroxy-3-methylpiperidin-1-yl)pyrido[4,3-d]pyrimidin-2-yl)oxy)-2-methylpropyl)piperazin-1-yl)methyl)-3-azaspiro[5.5]undecane-3-carbonyl)-2-methoxyphenyl)dihydropyrimidine-2,4(1H,3H)-dione]
19.9 nM	–	–	–	–	21.7 nM	100%	3.83 nM	4.85 nM	12.8 nM	C#Cc1c(F)ccc2cc(O)cc(-c3ncc4c(N5CCC[C@@](C)(O)C5)nc(OC[C@H](C)CN5CCN(CC6CCC7(CC6)CCN(C(=O)c6cc(N8CCC(=O)NC8=O)c(C)cc6F)CC7)CC5)nc4c3F)c12 [Example 162, 1-(5-(9-((4-((R)-3-((7-(8-ethynyl-7-fluoro-3-hydroxynaphthalen-1-yl)-8-fluoro-4-((R)-3-hydroxy-3-methylpiperidin-1-yl)pyrido[4,3-d]pyrimidin-2-yl)oxy)-2-methylpropyl)piperazin-1-yl)methyl)-3-azaspiro[5.5]undecane-3-carbonyl)-4-fluoro-2-methylphenyl)dihydropyrimidine-2,4(1H,3H)-dione]
